The values below come from PMC9316313, “Biochemical Properties of Atranorin-Induced Behavioral and Systematic Changes of Laboratory Rats” (Life, 2022).

The target in the test is T1, human serum albumin (HSA) (Homo sapiens, UniProt P02768).
T1 construct: gene ALB; Albumin from human serum (A1887, Sigma Aldrich)
The test is described as follows: intrinsic fluorescence quenching (Stern-Volmer, binding constant KB), synchronous and 3D fluorescence. Particulars: read-out: intrinsic fluorescence quenching (Stern-Volmer, binding constant KB), synchronou (converted).

The structures appear in SMILES notation.

T1 sequence (P02768 25-609): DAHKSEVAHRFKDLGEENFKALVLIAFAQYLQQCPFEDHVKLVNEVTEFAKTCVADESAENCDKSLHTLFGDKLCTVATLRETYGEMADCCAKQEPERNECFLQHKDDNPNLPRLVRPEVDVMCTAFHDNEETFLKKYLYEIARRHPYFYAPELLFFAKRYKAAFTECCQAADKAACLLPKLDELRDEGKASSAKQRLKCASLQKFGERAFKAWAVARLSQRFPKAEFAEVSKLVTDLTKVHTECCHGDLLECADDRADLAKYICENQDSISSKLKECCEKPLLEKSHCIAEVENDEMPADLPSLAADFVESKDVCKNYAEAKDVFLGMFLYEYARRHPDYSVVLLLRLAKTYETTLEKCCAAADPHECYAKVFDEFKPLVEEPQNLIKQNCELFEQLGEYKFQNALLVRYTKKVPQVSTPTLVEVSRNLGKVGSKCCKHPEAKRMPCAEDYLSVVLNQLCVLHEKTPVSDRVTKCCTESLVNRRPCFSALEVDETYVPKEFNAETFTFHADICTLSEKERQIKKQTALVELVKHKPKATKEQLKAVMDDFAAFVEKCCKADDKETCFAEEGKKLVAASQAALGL

For the compound `COC(=O)c1c(C)cc(OC(=O)c2c(C)cc(O)c(C=O)c2O)c(C)c1O` [ATR, Atranorin], the Kd is 235 nM.
